# In patent US8663607B2, “Ferrate(VI)-containing compositions and methods of using ferrate(VI)” (Battelle Memorial Institute, priority 2007, dated 2014):
# Like-named read-outs stand apart in the source and are kept apart here.
# Tests used:
# [1] = at 71° C.; pure (80-100%) or moderate purity (50-80%)
# Protocol: The more demanding isothermal test conditions were chosen for the preliminary viability assessment testing. In this series of tests, a Blue M Electric Oven, Model OV-490A-3 (S/N OV-11311, BMI No. N-00154, 120V Single Phase, 38-260° C.), was used. The oven was set to maintain an air temperature of approximately 71.5° C. A mercury thermometer immersed in silicone oil was added to the oven for manual tracking of the temperature, and a HOBO model H08-002-02 external temperature logger (Onset Computer Corp., S/N 5948-9820) was used for automated temperature data acquisition. Four ˜1.0 g samples of K2FeO4 TG were transferred to clean 12 mL glass vials with Teflon-lined caps; these samples with purity from ˜75-93% were chosen specifically to represent a variety of initial purity values. Before closure, the headspace of each vial briefly was purged (˜20 sec at ˜250 cm^3 (STP)) with ultra-high purity (UHP) argon gas to minimize trapped moisture.
# The samples were removed from the oven at 1, 2, 5, 7, 12, 27, 48, and 98 days. The purity of each sample was determined by the technique described in Section 3.2.1. Each vial was assayed three times at each sampling point in order to calculate standard deviation and provide an estimate of precision. When returning the vials to the isothermal oven, the headspace of each vial was purged briefly with UHP argon, as before.
# [2] = Stain removal from HAP disk, grape juice stain; details: disk A-4: grape juice stained disk treated the same way as P and Q (pH 8 SDS/HEPA buffer)
# [3] = Thermal stability of K2FeO4, cycling temperature profile (AR 70-38); type: physicochemical; details: cycling daily from 23° C. to 71° C. and back again
# Protocol: The cycling temperature profile specified in AR 70-38 also was studied. An oven (Fisher Scientific model No. 48) was outfitted with a programmable temperature controller (Omega Engineering model CN3251) and a small fan in order to provide air circulation. Temperature data acquisition was performed using a HOBO data logger (Onset Computer Corp., model HTEA −39+123° C.). The temperature controller was programmed to meet the specifications of AR 70-38 Sec. II, Table 2-2 (Storage and Transit Conditions). Specifically, the oven was programmed to remain above 66° C. for at least 5 hrs and to reach a peak temperature of 71° C. for not more than 1 hr. The programmed parameters appear below in Table 1.
# [4] = Stain removal from HAP disk, coffee stain; details: disk A-6: coffee stained disk treated the same way as P and Q (pH 8 SDS/HEPA buffer)
# Description: (§1) Oxidation resistant chelating buffer: 0.25M 1-Hydroxyethylidenediphosphonic acid (etridonic acid) (Dequest® 2010, Thermphos) (HEPA) was pH adjusted by microtitration with 10N NaOH. 1.28 g of 1-Hydroxyethylidenediphosphonic acid was to a 25-mL volumetric flask and brought to volume with HPDI water. The solution was transferred to a 50-mL beaker with a stir bar and pH adjusted using 10.04N NaOH, monitored with a calibrated pH meter. Aliquat 336® (Cognis) (also suitable is Aliquat 134®) (N-methyl-tri-(n-octyl)ammonium chloride), (N-methyl TOA) or “HEPA” chelating pH Buffer: 2.5-μL of N-methyl TOA was added to 5 mL of pH 7 HEPA buffer and sonicated for 1 minute. pH 7 Sodium Dodecyl Sulfate (SDS)/HEPA Buffer: 10 mg of SDS was added to 5 mL of pH 7 HEPA buffer and sonicated for 1 minute. pH 8 SDS/HEPA Buffer: 10 mg of SDS was added to 5 mL of pH 8 HEPA buffer and sonicated for 1 minute.
# • A. A tea stained disk was placed into the bowl of the bowl of a watch glass and 100 μL of pH 7 HEPA buffer was pipetted onto the disk surface. 3.7 mg of potassium ferrate(VI) was added to the disk surface and mixed gently. […] The disk was rinsed at 10 minutes with HPDI water. […] 1 mL of pH 7 HEPA buffer was added followed by 9 mL of HPDI water. 9.7 mg of potassium ferrate(VI) was added. The tube was gently hand shaken for 10 minutes. The disk was removed and rinsed with HPDI water. […] 10 mg of potassium ferrate(VI) was added to 1 mL of pH 7 HEPA buffer in a 50 mL centrifuge tube. 9 mL HPDI water was added, and the solution was shaken for a few seconds followed by the addition of a tea stained HAP disk. The disk was removed at 10 minutes and rinsed with HPDI water. […] 1.3 mg of potassium ferrate(VI) added and mixed into the solution. […] 1.4 mg of potassium ferrate(VI) was added to the disk surface and mixed gently. […] The reaction was allowed to continue for 5 minutes. […] The disk was rinsed several times with HPDI water. 100 μL of pH 7 HEPA buffer was pipetted onto the disk surface and allowed to react for 5 minutes. […] 1 mg of potassium ferrate(VI) was added and mixed into the liquid.
# [5] = Treatment of unstained HAP disk (staining by the reagent itself); details: disk D: unstained disk, 100 μL pH 7 HEPA buffer, 1.3 mg
# Protocol: Tea staining Procedure: A calcium-deficient hydroxyapatite (HAP) disk (Clarkson Chromatography Products) was placed into a 50-mL centrifuge tube with 10 mL of tea solution. The centrifuge tube was gently shaken by hand for 15 minutes. The tea solution was decanted and replaced with 10 mL of HPDI water and vortexed for 30 seconds. The water was decanted and replaced with 10 additional mL of HPDI water and vortexed for 30 seconds. The disk was removed with forceps and patted dry with a tissue. The disk was allowed to air dry at room temperature for at least one hour.
# as §1
# • A. A tea stained disk was placed into the bowl of the bowl of a watch glass and 100 μL of pH 7 HEPA buffer was pipetted onto the disk surface. 3.7 mg of potassium ferrate(VI) was added to the disk surface and mixed gently. […] The disk was rinsed at 10 minutes with HPDI water. […] 1 mL of pH 7 HEPA buffer was added followed by 9 mL of HPDI water. 9.7 mg of potassium ferrate(VI) was added. The tube was gently hand shaken for 10 minutes. The disk was removed and rinsed with HPDI water. […] 10 mg of potassium ferrate(VI) was added to 1 mL of pH 7 HEPA buffer in a 50 mL centrifuge tube. 9 mL HPDI water was added, and the solution was shaken for a few seconds followed by the addition of a tea stained HAP disk. The disk was removed at 10 minutes and rinsed with HPDI water. […] 1.3 mg of potassium ferrate(VI) added and mixed into the solution. […] 1.4 mg of potassium ferrate(VI) was added to the disk surface and mixed gently. […] The reaction was allowed to continue for 5 minutes. […] The disk was rinsed several times with HPDI water. 100 μL of pH 7 HEPA buffer was pipetted onto the disk surface and allowed to react for 5 minutes.
substance,measurement,setting,value
potassium ferrate(VI),stable to storage,[1],at least 98 days
same,L* (lightness/darkness),[2],103.5
same,a* (blue/red),[2],−1.9
same,appearance of disk after treatment,[2],All stains were removed
same,b* (yellow/green),[2],−3.1
same,reflectance of visible light at 450 nm,[2],111.244
same,reflectance of visible light at 750 nm,[2],103.795
same,ΔE (grape juice stain),[2],6.10
same,stable to storage,[3],at least 82 days
same,L* (lightness/darkness),[4],101.9
same,a* (blue/red),[4],−2.1
same,appearance of disk after treatment,[4],All stains were removed
same,b* (yellow/green),[4],−2.8
same,reflectance of visible light at 450 nm,[4],106.774
same,reflectance of visible light at 750 nm,[4],99.233
same,ΔE (coffee stain),[4],13.57
same,L* (lightness/darkness),[5],103.4
same,a* (blue/red),[5],−2.2
same,appearance of disk after treatment,[5],very slight yellow tint
same,b* (yellow/green),[5],0.5
same,reflectance of visible light at 450 nm,[5],105.246
same,reflectance of visible light at 750 nm,[5],102.793
same,ΔE (versus tea stain),[5],20.34
